Assay results taken from patent US20260335314A1, “CRYSTALLINE SALTS OR AMORPHOUS FORMS OF 2-((1H-PYRAZOL-3-YL)METHYL)-6-((6-AMINOPYRIDIN-2-YL)METHYL)-4-METHYL-4,6-DIHYDRO -5H-THIAZOLO[5',4':4,5]PYRROLO[2,3-D]PYRIDAZIN-5-ONE” (Agios Pharmaceuticals, Inc., priority 2023, published 2026).
In brackets after ≈: the same amount, converted by molar mass.

Columns and labels:
[1] = Kinetic solubility in biorelevant media; type: physicochemical
Experimental: (§1) Solubility samples were prepared by weighing about 10 mg of each salt and adding 1 mL of media and vortexed briefly to obtain suspensions. […] For such instances, the solubility is calculated as greater than (>).
(§2) The sample vials were capped and wrapped in aluminum foil, and placed on a shaker at 37° C. The shaker was set at about 100 rpm and vials were removed at specified time points. The vials were observed, and the supernatants were transferred to Eppendorf tubes and centrifuged at 3K for 10 minutes. The clear supernatants were transferred to HPLC vials. The samples were diluted prior to HPLC analysis using the dilution media by 2× or used without dilution. pH was measured of the 24 hour timepoint after centrifugation using a micro pH probe.
• pH 2 buffer USP: Mixed 50 mL of 0.2M potassium chloride and 13 mL 0.2M HCl, diluted to 200 mL with water. • pH 4.5 buffer USP: 5.44 g of potassium dihydrogen phosphate was diluted to 1000 mL with water. • pH 6.8 buffer USP: Mixed 50 mL of 0.2M potassium phosphate and 22.4 mL 0.2M sodium hydroxide. Diluted with water to 200 mL. • SGF: 2.0109 g of NaCl was dissolved in water, added 7 mL of conc. HCl and diluted to 1 L. • FeSSIF: 4.0321 g of NaOH and 11.8726 g of NaCl were dissolved in water, added 8.65 mL of glacial acetic acid, […] 0.4247 g of NaOH, 3.9548 g of sodium phosphate monobasic monohydrate and 6.1900 g of NaCl were dissolved in water, adjusted the pH to 6.5 and diluted to 1 L.
(§3) Kinetic solubility was determined in biorelevant media. At each time point, the solution was analyzed by HPLC. The solid residue was analyzed by XRPD at selected time points. The pH of the solution was measured at 24 hours.

[2] = Pharmacokinetics / absolute bioavailability in male Sprague Dawley rats; type: in vivo; settings: for AUCinf / AUC(0-inf): plasma; for AUC(0-inf): rat
Experimental: Twenty-one (21) male Sprague Dawley rats (purchased from Shanghai Laboratory Animal Center Co., Ltd., Shanghai, China) were randomized into 7 groups (3 animals per group). The animals fasted overnight, the forms of Compound 1 shown in Table 7 were administered by oral gavage, and the animals were fed 4 hours post-dose.
Blood was serially collected from each animal at 0 (pre-dose), 0.083, 0.25, 0.5, 1, 2, 4, 8, and 24 h post-dose. For each collection, the animal was restrained manually, and approximately 150 μL of blood sample was collected via the tail vein into K2EDTA tubes. Plasma samples were stored at approximately −70° C. until analysis.
To enable the calculation of absolute bioavailability, Compound 1 was formulated as a solution in 10% N-methyl-2-pyrrolidone, 10% Solutol HS 15, and 80% saline and administered at 1 mg/kg as intravenous (IV) bolus dose to a separate group of male Sprague Dawley rats, and blood samples were collected at similar timepoints to those shown above. Further, plasma samples were obtained from the collected samples and stored at approximately −70° C. until analysis.
The concentration of Compound 1 in the plasma samples was determined by LC-MS/MS analysis.
A 20 μL aliquot of each plasma sample was mixed with 200 μL of acetonitrile containing glipizide as an internal standard (40 ng/mL). The resulting mixture was vortexed at 1500 rpm for 2 min and centrifuged at 5800 rpm for 10 min. A 1 μL sample from the supernatant was injected into LC-MS/MS.
LC-MS/MS analysis was conducted on a UPLC/MS-MS (API 6500+) system under the conditions outlined in Table 8
The absolute bioavailability of each form of Compound 1 was determined by dividing the AUCinf of the form in question by the AUCinf obtained historical data by IV administration of Compound 1.

pH solubility in buffers = type: physicochemical; settings: for pH (24 h): pH of solution at 24 h; for solubility / solubility at 2 h: 37 °C
Experimental: as §1, §2
• pH 2 buffer USP: Mixed 50 mL of 0.2M potassium chloride and 13 mL 0.2M HCl, diluted to 200 mL with water. • pH 4.5 buffer USP: 5.44 g of potassium dihydrogen phosphate was diluted to 1000 mL with water. • pH 6.8 buffer USP: Mixed 50 mL of 0.2M potassium phosphate and 22.4 mL 0.2M sodium hydroxide. Diluted with water to 200 mL. • SGF: 2.0109 g of NaCl was dissolved in water, added 7 mL of conc. HCl and diluted to 1 L. • FeSSIF: 4.0321 g of NaOH and 11.8726 g of NaCl were dissolved in water, added 8.65 mL of glacial acetic acid, adjusted the pH to 5.0 and diluted to 1 L. • FaSSIF: 0.4247 g of NaOH, 3.9548 g of sodium phosphate monobasic monohydrate and 6.1900 g of NaCl were dissolved in water, adjusted the pH to 6.5 and diluted to 1 L.
(§4) At each time point, the solution was analyzed by HPLC and residue was vacuum dried and analyzed by XRPD. The pH of the solution was measured at 24 hours.

[3] = Dynamic vapor sorption (moisture uptake); type: physicochemical; settings: 25° C.
Experimental: Dynamic Vapor Sorption (DVS) was carried out using a TA Instruments Q5000 Dynamic Vapor Sorption analyzer. The instrument was calibrated with standard weights and a sodium bromide standard for humidity. Approximately 10-25 mg of sample was loaded into a metal-coated quartz pan for analysis. […] The movement from one step to the next occurred either after satisfying the equilibrium criterion of 0.01% weight change or, if the equilibrium criterion was not met, after one hour. The percent weight change values were calculated using Microsoft Excel®.

[4] = XRPD of solid residue from solubility samples (salt disproportionation); type: physicochemical; settings: FaSSIF residue
Experimental: as §4, §3

[5] = from 5% to 95% relative humidity
[6] = from 2% to 95% relative humidity

For `Cn1c2nc(Cc3cc[nH]n3)sc2c2cnn(Cc3cccc(N)n3)c(=O)c21` [Form B], the solubility ([1]; FaSSIF pH 6.5, 10 min, 37 °C, 10 min) was 0.38 (suspect) mg/mL, the solubility ([1]; FaSSIF pH 6.5, 30 min, 37 °C, 30 min) was 0.36 (suspect) mg/mL and the solubility ([1]; FaSSIF pH 6.5, 1 h, 37 °C, 60 min) was 0.24 mg/mL (≈ 612 µM). For the same compound, the solubility ([1]; FaSSIF pH 6.5, 2 h, 37 °C, 120 min) was 0.57 mg/mL (≈ 1450 µM), the solubility ([1]; FaSSIF pH 6.5, 4 h, 37 °C, 240 min) was 1.40 (suspect) mg/mL and the solubility ([1]; FaSSIF pH 6.5, 24 h, 37 °C, 1440 min) was 0.70 mg/mL (≈ 1780 µM). For the same compound, the “pH (24 h)” value ([1]; FaSSIF pH 6.5, pH of solution at 24 h) was 3.39, the solubility ([1]; FeSSIF pH 5.0, 1 h, 37 °C, 60 min) was 0.08 mg/mL (≈ 204 µM) and the “pH (24 h)” value ([1]; FeSSIF pH 5.0, pH of solution at 24 h) was 4.79. For the same compound, the “pH (24 h)” value ([1]; SGF pH 1.2, pH of solution at 24 h) was 1.0, the solubility at 10 min ([1]; fessif, pH 5, FeSSIF pH 5.0, 10 min, 37 °C) was 340 µg/mL (≈ 866 µM) and the solubility at 0.5 h ([1]; fessif, pH 5, FeSSIF pH 5.0, 30 min, 37 °C) was 130 µg/mL (≈ 331 µM). For the same compound, the solubility at 2 h ([1]; fessif, pH 5, FeSSIF pH 5.0, 2 h, 37 °C) was 110 µg/mL (≈ 280 µM), the solubility at 4 h ([1]; fessif, pH 5, FeSSIF pH 5.0, 4 h, 37 °C) was 100 µg/mL (≈ 255 µM) and the solubility at 24 h ([1]; fessif, pH 5, FeSSIF pH 5.0, 24 h, 37 °C) was 60 µg/mL (≈ 153 µM). For the same compound, the solubility ([1]; sgf, pH 1.2, SGF pH 1.2, 37 °C, dissolved instantly, from total volume of media added, read-out: solubility) was > 10 mg/mL, the “dissolution in SGF” value ([1]; simulated gastric fluid (SGF)) was “dissolved instantly” and the “absolute bioavailability, comparison with other forms” value ([2]; oral gavage, 10 mg/kg) was “higher than the measured bioavailability of the other forms of Compound 1”. For the same compound, the AUCinf ([2]; oral gavage, 10 mg/kg, fasted overnight) was 10846 ng·h/mL, the “Absolute % F” value ([2]; oral gavage, 10 mg/kg, vs historical IV AUCinf, 10 mg/kg) was 70% and the “dissolution in 0.1N HCl” value (pH solubility in buffers; 0.1N HCl) was “dissolved instantly”. For the same compound, the “pH (24 h)” value (pH solubility in buffers; 0.1 N HCl) was 1.44, the solubility (pH solubility in buffers; 0.1 n hcl, dissolved instantly, estimated by adding 100 uL aliquots, read-out: solubility) was > 16.7 mg/mL and the solubility (pH solubility in buffers; pH 2 (USP), 2 h, 120 min) was 2.59 mg/mL (≈ 6600 µM). For the same compound, the solubility (pH solubility in buffers; pH 2 (USP), 24 h, 1440 min) was 2.40 mg/mL (≈ 6120 µM), the “pH (24 h)” value (pH solubility in buffers; pH 2 (USP)) was 2.26 and the solubility (pH solubility in buffers; pH 4.5 (USP), 24 h, 1440 min) was 0.27 mg/mL (≈ 688 µM). For the same compound, the “pH (24 h)” value (pH solubility in buffers; pH 4.5 (USP)) was 4.01, the solubility (pH solubility in buffers; pH 6.8 (USP), 24 h, 1440 min) was 0.01 mg/mL (≈ 25.5 µM) and the “pH (24 h)” value (pH solubility in buffers; pH 6.8 (USP)) was 5.09. The solubility at 2 h (pH solubility in buffers; ph 4.5 buffer (usp), pH 4.5, pH 4.5 (USP), 2 h) was 70 µg/mL (≈ 178 µM), the solubility at 2 h (pH solubility in buffers; ph 6.8 buffer (usp), pH 6.8, pH 6.8 (USP), 2 h) was 30 µg/mL (≈ 76.4 µM) and the “moisture uptake (DVS)” value [3, 5] was “about 0.9%”. For the same compound, the “salt disproportionation by XRPD” value [4] was “some salt remained”.
With `Cn1c2nc(Cc3cc[nH]n3)sc2c2cnn(Cc3cccc(N)n3)c(=O)c21` [Form E] the AUCinf ([2]; oral gavage, 10 mg/kg, fasted overnight, listed as Free Base Hydrate Form E (wet milled)) was 7378 ng·h/mL, the “Absolute % F” value ([2]; oral gavage, 10 mg/kg, vs historical IV AUCinf, listed as Free Base Hydrate Form E (Unmilled), 10 mg/kg) was 45% and the “Absolute % F” value ([2]; oral gavage, 10 mg/kg, vs historical IV AUCinf, listed as Free Base Hydrate Form E (wet milled), 10 mg/kg) was 47%. For the same compound, the AUC(0-inf) ([2]; po, 10 mg/kg, oral gavage, fasted overnight) was 6960 ng·h/mL and the “moisture uptake (DVS)” value [3, 5] was “about 1.3%”.
With `Cn1c2nc(Cc3cc[nH]n3)sc2c2cnn(Cc3cccc(N)n3)c(=O)c21` [Compound 1, 2-((1H-pyrazol-3-yl)methyl)-6-((6-aminopyridin-2-yl)methyl)-4-methyl-4,6-dihydro-5H-thiazolo[5′,4′:4,5]pyrrolo[2,3-d]pyridazin-5-one] the “Absolute % F” value ([2]; IV administration (historical), 1 mg/kg, reference) was 100% and the AUC(0-inf) ([2]; iv, 1 mg/kg, IV bolus (historical)) was 1560 ng·h/mL.
In the case of `Cn1c2nc(Cc3cc[nH]n3)sc2c2cnn(Cc3cccc(N)n3)c(=O)c21.O=C(O)C(O)C(O)C(=O)O` [Form I], the “moisture uptake (DVS)” value [3, 6] is reported as “about 10.5%”.
In the case of `Cn1c2nc(Cc3cc[nH]n3)sc2c2cnn(Cc3cccc(N)n3)c(=O)c21` [Form D-2], the “moisture uptake (DVS)” value [3, 6] is reported as “about 1.1%”.
For `Cn1c2nc(Cc3cc[nH]n3)sc2c2cnn(Cc3cccc(N)n3)c(=O)c21` [Form D-1], the “moisture uptake (DVS)” value [3, 5] was “about 2.8%”.
